Data: PubChem BioAssay (NCI)
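Test compounds were applied to cells in 96-well plates for 48 hours at 5 doses. Abbreviation: GI50, concentration required for 50% inhibition of growth. Definition used: TGI = concentration required for complete inhibition of growth.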

Columns and labels:
Experiment in all cases: NCI-60 cell line screen, 48 h
786-0 renal = tested on: 786-0 renal
A498 renal = tested on: A498 renal
A549 NSCLC = tested on: A549 NSCLC
ACHN renal = tested on: ACHN renal
BT-549 breast = tested on: BT-549 breast
CAKI-1 renal = tested on: CAKI-1 renal
COLO 205 colon = tested on: COLO 205 colon
DU-145 prostate = tested on: DU-145 prostate
HCC-2998 colon = tested on: HCC-2998 colon
HCT-116 colon = tested on: HCT-116 colon
HCT-15 colon = tested on: HCT-15 colon
HL-60(TB) leukemia = tested on: HL-60(TB) leukemia
HOP-62 NSCLC = tested on: HOP-62 NSCLC
HOP-92 NSCLC = tested on: HOP-92 NSCLC
HS 578T breast = tested on: HS 578T breast
HT29 colon = tested on: HT29 colon
IGROV1 ovarian = tested on: IGROV1 ovarian
K-562 leukemia = tested on: K-562 leukemia
KM12 colon = tested on: KM12 colon
LOX IMVI melanoma = tested on: LOX IMVI melanoma
M14 melanoma = tested on: M14 melanoma
MALME-3M melanoma = tested on: MALME-3M melanoma
MCF7 breast = tested on: MCF7 breast
MDA-MB-231 breast = tested on: MDA-MB-231 breast
MDA-MB-435 = tested on: MDA-MB-435
MOLT-4 leukemia = tested on: MOLT-4 leukemia
NCI-H226 lung = tested on: NCI-H226 lung
NCI-H23 lung = tested on: NCI-H23 lung
NCI-H460 lung = tested on: NCI-H460 lung
NCI-H522 lung = tested on: NCI-H522 lung
NCI/ADR-RES ovarian = tested on: NCI/ADR-RES ovarian
OVCAR-3 ovarian = tested on: OVCAR-3 ovarian
OVCAR-4 ovarian = tested on: OVCAR-4 ovarian
OVCAR-5 ovarian = tested on: OVCAR-5 ovarian
OVCAR-8 ovarian = tested on: OVCAR-8 ovarian
PC-3 prostate = tested on: PC-3 prostate
RPMI-8226 leukemia = tested on: RPMI-8226 leukemia
RXF 393 renal = tested on: RXF 393 renal
SF-268 CNS = tested on: SF-268 CNS
SF-295 CNS = tested on: SF-295 CNS
SF-539 CNS = tested on: SF-539 CNS
SK-MEL-2 melanoma = tested on: SK-MEL-2 melanoma
SK-MEL-28 melanoma = tested on: SK-MEL-28 melanoma
SK-MEL-5 melanoma = tested on: SK-MEL-5 melanoma
SK-OV-3 ovarian = tested on: SK-OV-3 ovarian
SN12C renal = tested on: SN12C renal
SNB-19 CNS = tested on: SNB-19 CNS
SNB-75 CNS = tested on: SNB-75 CNS
SR leukemia = tested on: SR leukemia
SW-620 colon = tested on: SW-620 colon
T-47D breast = tested on: T-47D breast
TK-10 renal = tested on: TK-10 renal
U251 CNS = tested on: U251 CNS
UACC-257 melanoma = tested on: UACC-257 melanoma
UACC-62 melanoma = tested on: UACC-62 melanoma
UO-31 renal = tested on: UO-31 renal
CCRF-CEM leukemia = tested on: CCRF-CEM leukemia
EKVX NSCLC = tested on: EKVX NSCLC

COc1cc(-c2nn(-c3cccc(NC(=O)Nc4ccc(Cl)c(Cl)c4)c3)cc2-c2ccncc2)ccc1Cl
GI50 (786-0 renal): 1.31 µM | TGI (786-0 renal): 4.48 µM | GI50 (A498 renal): 1.14 µM | TGI (A498 renal): 4.59 µM | GI50 (A549 NSCLC): 0.745 µM | TGI (A549 NSCLC): > 50 µM | GI50 (ACHN renal): 1 µM | TGI (ACHN renal): > 50 µM | GI50 (BT-549 breast): 1.68 µM | TGI (BT-549 breast): 27.6 µM | GI50 (CAKI-1 renal): 1.12 µM | TGI (CAKI-1 renal): 3.7 µM | GI50 (COLO 205 colon): 0.937 µM | TGI (COLO 205 colon): 1.72 µM | GI50 (DU-145 prostate): 1.52 µM | TGI (DU-145 prostate): 34.2 µM | GI50 (HCC-2998 colon): 1.56 µM | TGI (HCC-2998 colon): 6.2 µM | GI50 (HCT-116 colon): 1.21 µM | TGI (HCT-116 colon): > 50 µM | GI50 (HCT-15 colon): 1.23 µM | TGI (HCT-15 colon): > 50 µM | GI50 (HL-60(TB) leukemia): 1.66 µM | TGI (HL-60(TB) leukemia): > 50 µM | GI50 (HOP-62 NSCLC): 1.44 µM | TGI (HOP-62 NSCLC): 4.9 µM | GI50 (HOP-92 NSCLC): 0.151 µM | TGI (HOP-92 NSCLC): 1.47 µM | GI50 (HS 578T breast): 1.43 µM | TGI (HS 578T breast): > 50 µM | GI50 (HT29 colon): 1.24 µM | TGI (HT29 colon): 6.46 µM | GI50 (IGROV1 ovarian): 1.18 µM | TGI (IGROV1 ovarian): 3.48 µM | GI50 (K-562 leukemia): 0.89 µM | TGI (K-562 leukemia): > 50 µM | GI50 (KM12 colon): 0.811 µM | TGI (KM12 colon): 2.77 µM | GI50 (LOX IMVI melanoma): 0.953 µM | TGI (LOX IMVI melanoma): 2.62 µM | GI50 (M14 melanoma): 0.911 µM | TGI (M14 melanoma): 2.69 µM | GI50 (MALME-3M melanoma): 0.926 µM | TGI (MALME-3M melanoma): 2.42 µM | GI50 (MCF7 breast): 0.945 µM | TGI (MCF7 breast): > 50 µM | GI50 (MDA-MB-231 breast): 0.698 µM | TGI (MDA-MB-231 breast): 1.92 µM | GI50 (MDA-MB-435): 0.938 µM | TGI (MDA-MB-435): 2.39 µM | GI50 (MOLT-4 leukemia): 1.1 µM | TGI (MOLT-4 leukemia): 4.48 µM | GI50 (NCI-H226 lung): 1.35 µM | TGI (NCI-H226 lung): > 50 µM | GI50 (NCI-H23 lung): 1.41 µM | TGI (NCI-H23 lung): 5.19 µM | GI50 (NCI-H460 lung): 1.11 µM | TGI (NCI-H460 lung): > 50 µM | GI50 (NCI-H522 lung): 0.811 µM | TGI (NCI-H522 lung): 3.1 µM | GI50 (NCI/ADR-RES ovarian): 0.99 µM | TGI (NCI/ADR-RES ovarian): 4.67 µM | GI50 (OVCAR-3 ovarian): 0.697 µM | TGI (OVCAR-3 ovarian): 2.27 µM | GI50 (OVCAR-4 ovarian): 1.29 µM | TGI (OVCAR-4 ovarian): > 50 µM | GI50 (OVCAR-5 ovarian): 2.13 µM | TGI (OVCAR-5 ovarian): > 50 µM | GI50 (OVCAR-8 ovarian): 0.931 µM | TGI (OVCAR-8 ovarian): 3.61 µM | GI50 (PC-3 prostate): 0.554 µM | TGI (PC-3 prostate): 2.83 µM | GI50 (RPMI-8226 leukemia): 0.388 µM | TGI (RPMI-8226 leukemia): 3.26 µM | GI50 (RXF 393 renal): 0.859 µM | TGI (RXF 393 renal): 2.44 µM | GI50 (SF-268 CNS): 1.51 µM | TGI (SF-268 CNS): 20.3 µM | GI50 (SF-295 CNS): 0.691 µM | TGI (SF-295 CNS): 2.53 µM | GI50 (SF-539 CNS): 0.965 µM | TGI (SF-539 CNS): 3.08 µM | GI50 (SK-MEL-2 melanoma): 1.14 µM | TGI (SK-MEL-2 melanoma): 2.35 µM | GI50 (SK-MEL-28 melanoma): 1.43 µM | TGI (SK-MEL-28 melanoma): 7.32 µM | GI50 (SK-MEL-5 melanoma): 0.741 µM | TGI (SK-MEL-5 melanoma): 1.49 µM | GI50 (SK-OV-3 ovarian): 1.93 µM | TGI (SK-OV-3 ovarian): > 50 µM | GI50 (SN12C renal): 1.47 µM | TGI (SN12C renal): > 50 µM | GI50 (SNB-19 CNS): 1.72 µM | TGI (SNB-19 CNS): > 50 µM | GI50 (SNB-75 CNS): 1.05 µM | TGI (SNB-75 CNS): 5.17 µM | GI50 (SR leukemia): 0.932 µM | TGI (SR leukemia): 2.8 µM | GI50 (SW-620 colon): 1.59 µM | TGI (SW-620 colon): > 50 µM | GI50 (T-47D breast): 1.42 µM | TGI (T-47D breast): > 50 µM | GI50 (TK-10 renal): 1.43 µM | TGI (TK-10 renal): 40.9 µM | GI50 (U251 CNS): 0.82 µM | TGI (U251 CNS): 2.47 µM | GI50 (UACC-257 melanoma): 1.04 µM | TGI (UACC-257 melanoma): 3.11 µM | GI50 (UACC-62 melanoma): 0.773 µM | TGI (UACC-62 melanoma): 1.86 µM | GI50 (UO-31 renal): 0.845 µM | TGI (UO-31 renal): 4.96 µM

C=Cc1c(C)c2cc3nc(cc4[nH]c(cc5nc(cc1[nH]2)C(C)=C5CCC(=O)O)c(CCC(=O)OC)c4C)[C@@]1(C)C3=CC=C(C(=O)OC)[C@H]1C(=O)OC
GI50 (A498 renal): 1.19 µM | TGI (A498 renal): 2.52 µM | GI50 (ACHN renal): 1.34 µM | TGI (ACHN renal): 2.62 µM | GI50 (BT-549 breast): 1.24 µM | TGI (BT-549 breast): 2.8 µM | GI50 (CAKI-1 renal): 1.17 µM | TGI (CAKI-1 renal): 2.39 µM | GI50 (CCRF-CEM leukemia): 0.829 µM | TGI (CCRF-CEM leukemia): 3.68 µM | GI50 (EKVX NSCLC): 2.1 µM | TGI (EKVX NSCLC): 5.38 µM | GI50 (HL-60(TB) leukemia): 2.09 µM | TGI (HL-60(TB) leukemia): 5.7 µM | GI50 (MDA-MB-435): 0.357 µM | TGI (MDA-MB-435): 1.34 µM | GI50 (MOLT-4 leukemia): 0.388 µM | TGI (MOLT-4 leukemia): 1.89 µM | GI50 (OVCAR-5 ovarian): 1.59 µM | TGI (OVCAR-5 ovarian): 3.07 µM | GI50 (PC-3 prostate): 1.43 µM | TGI (PC-3 prostate): 6.69 µM | GI50 (RPMI-8226 leukemia): 1.27 µM | TGI (RPMI-8226 leukemia): > 100 µM | GI50 (RXF 393 renal): 1.97 µM | TGI (RXF 393 renal): 4.47 µM | GI50 (SF-539 CNS): 1.4 µM | TGI (SF-539 CNS): 2.7 µM | GI50 (SK-MEL-28 melanoma): 1.51 µM | TGI (SK-MEL-28 melanoma): 3 µM | GI50 (SK-MEL-5 melanoma): 1.7 µM | TGI (SK-MEL-5 melanoma): 3.15 µM | GI50 (SK-OV-3 ovarian): 1.85 µM | TGI (SK-OV-3 ovarian): 3.54 µM | GI50 (SNB-75 CNS): 0.846 µM | TGI (SNB-75 CNS): 2.18 µM | GI50 (T-47D breast): 1.48 µM | TGI (T-47D breast): 4.53 µM | GI50 (UACC-62 melanoma): 1.37 µM | TGI (UACC-62 melanoma): 2.8 µM

C[C@H]1[C@H](C)CC[C@]2(C(=O)OCCOCCOCC[P+](c3ccccc3)(c3ccccc3)c3ccccc3)CC[C@]3(C)C(=CC[C@@H]4[C@@]5(C)CC[C@H](OC(=O)C(Cl)Cl)C(C)(C)[C@@H]5CC[C@]43C)[C@H]12
GI50 (ACHN renal): 0.54 µM | TGI (ACHN renal): 1.26 µM | GI50 (CCRF-CEM leukemia): 0.227 µM | TGI (CCRF-CEM leukemia): 1.61 µM | GI50 (DU-145 prostate): 0.301 µM | TGI (DU-145 prostate): 0.941 µM | GI50 (HL-60(TB) leukemia): 0.161 µM | TGI (HL-60(TB) leukemia): 0.804 µM | GI50 (HS 578T breast): 0.202 µM | TGI (HS 578T breast): 3.2 µM | GI50 (SW-620 colon): 0.234 µM | TGI (SW-620 colon): 0.955 µM
